# Experimental data published in patent US8367710B2, “Bicyclo-substituted pyrazolon azo derivatives, preparation process and pharmaceutical use thereof” (Jiangsu Hengrui Medicine Co. Ltd., priority 2008, dated 2013).
# Columns and labels:
# [1] = Pharmacokinetics assay in rats after intragastric administration; format: in vivo; conditions: both sexes, Sprague-Dawley, rat, plasma, po, SD rats, 5 mg/Kg; for Vd/F: read-out: Apparent Distribution Volume Vz/F; for CL/F: read-out: Clearance CL/F (converted); for AUC: read-out: Curve Area AUC; for half-life: read-out: Half-Life t½ (converted); for MRT: read-out: Mean Residence Time MRT; for Cmax: read-out: Plasma Conc. Cmax
# Method: Test Example 1: Pharmacokinetics assay of the compounds of the present disclosure
# The pharmacokinetics of the compounds of the present disclosure was studied and evaluated in rats.
# The test compound was diluted with 1% sodium carboxymethyl cellulose to 0.5 mg/mL (calculated as the free acid form) of suspension before use.
# 24 healthy adult SD rats, male and female in half, were divided into […]. After an overnight fast, the rats were administered intragastrically at a dose of 5.0 mg/kg (calculated as the free acid form), at a volume of 10 mL/kg.
# 24 healthy adult SD rats, male and female in half, were administered intragastrically at a dose of 5.0 mg/kg after an overnight fast. Blood samples (0.2 mL) were taken from eye socket at pre administration and at 0.5, 1.0, 2.0, 3.0, 4.0, 5.0, 6.0, 8.0, 11.0, 14.0, 24.0, 36.0 and 48.0 hours post administration, which were stored in heparinized tubes and centrifuged for 10 minutes at 3,500 rpm. The plasma samples were stored at −20° C. until analysis.
# 50 μL of rat plasma, obtained at various time points after administration, 20 μL of internal standard solution and 20 μL of a solvent mixture of methanol and water (80:20, v/v) were mixed well, and then 150 μL of methanol was added to result in protein precipitation. Then the mixture was mixed for 1 minute using a vortexer and centrifuged for 10 minutes at 13,000 rpm. 20 μL of the supernatant was analyzed by LC/MS/MS.
# 50 μL of blank plasma was spiked with a series of standard solutions to produce final concentrations of 1.0, 5.0, 25.0, 50.0, 100.0, 250.0, 500.0 ng/mL, followed by addition of 20 μL of internal standard solution, which was treated according to plasma sample pretreatment protocol. A typical calibration curve equation was obtained with plasma concentration as the abscissa and the chromatographic peak area ratio of sample to internal standard as the ordinate, using weighted least squares method (w=1/x^2) for linear regression.
# The compartmental model of pharmacokinetics was fitted for the test compounds and the major pharmacokinetic parameters were calculated in which Cmax and tmax were the actually measured values.
# human TPO receptor = biological target: T1, human TPO receptor (Homo sapiens, UniProt P40238); test: pro-proliferation effect on BAF3-TPOR cell (CCK-8); format: cell-based, mouse; conditions: BAF3-TPOR cells, proliferation relative to rhTPO positive control
# T1 sequence (P40238 26-635): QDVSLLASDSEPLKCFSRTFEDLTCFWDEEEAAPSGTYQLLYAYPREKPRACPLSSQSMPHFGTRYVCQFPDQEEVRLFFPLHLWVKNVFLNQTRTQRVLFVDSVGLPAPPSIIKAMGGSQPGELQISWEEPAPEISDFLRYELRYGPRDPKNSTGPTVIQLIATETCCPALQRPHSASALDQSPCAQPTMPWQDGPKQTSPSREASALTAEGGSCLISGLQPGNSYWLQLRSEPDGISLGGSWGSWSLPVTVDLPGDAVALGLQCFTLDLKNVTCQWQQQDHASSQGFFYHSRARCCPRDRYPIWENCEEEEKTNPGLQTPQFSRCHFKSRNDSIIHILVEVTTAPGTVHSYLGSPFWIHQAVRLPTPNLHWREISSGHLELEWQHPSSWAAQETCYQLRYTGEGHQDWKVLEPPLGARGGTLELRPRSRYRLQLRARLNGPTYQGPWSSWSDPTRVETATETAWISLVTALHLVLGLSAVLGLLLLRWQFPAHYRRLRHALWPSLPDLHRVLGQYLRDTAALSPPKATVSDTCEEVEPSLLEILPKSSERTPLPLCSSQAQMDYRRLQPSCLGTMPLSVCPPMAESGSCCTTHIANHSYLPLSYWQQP
# Method: The sequence of primers which contains multi-sites mutation was designed as follows: […]
# The E. coli DH5α competent cell was transformed with mutated plasmid, and positive colonies were picked up through ampicillin selection.
# (2) BAF3-TPOR stable transfected cell line: the following method was used to construct the BaF3 cell which stably over-expressed functional human TPO receptor. […] The stable transfected cells BAF3-TPOR were selected with G418 (Gibco, US), then incubated with RPMI1640 medium plus 10% FBS (Gibco, US), […] G418, 5 ng/mL, rmIL-3 (Chemicon, US).
# (1) Washing cells by centrifugation: a suitable amount of cell suspension was centrifuged at 1000 rpm for 5 minutes, and the supernatant was discarded. 10 mL of cell culture media without containing IL-3 was added. Then the resulting cell suspension was centrifuged at 1000 rpm for 5 minutes, and the supernatant was discarded.
# (2) 1 mL of cell culture media without containing IL-3 was added to beat upon them to equality, and the number of a suitable amount of cell suspension was counted after dilution.
# (3) According to the result of the cell counting, a cell suspension in a concentration of 100,000 cell/mL was prepared.
# (4) 100 μL of cell suspension was transferred to each well of 96-well culture plate, and there were 3 parallel wells, that is, there were a blank control group (B), a negative control group (N), a positive control group of TPO (P) and a test compound group (S).
# (5) The test compound was dissolved in DMSO to prepare a 10 mM stock solution, and then the solution was diluted with RPMI 1640 medium into a series of test samples at different concentration: 30 μM, 10 μM, 3 μM, 1 μM, 0.3 μM, 0.1 μM, 0.03 μM, 0.01 μM, 0.003 μM, 0.001 μM.
# (6) 10 μL of test compound solution was transferred to each well respectively; 1 μL of rhTPO (10 μg/mL) was added to positive control well.
# (7) The plates were incubated in an incubator at 5% CO2 and 37° C. for 24 hours.
# (9) OD value was detected at 450 nm by VICTOR3 (Perkin Elmer 1420-120) plate reader.
# (1) The proliferation rate was calculated as follows: Rate=[(S−B)/(P−B)]*100%
# S: OD value of wells which contains test compound.
# B: OD value of blank control wells
# P: OD value of positive control wells
# (2) The EC50 value was calculated by Origin 7.0 software.
SMILES,EC50 (human TPO receptor),further results
"CC1=NN(c2ccc3c(c2)CCC3)C(=O)/C1=N\Nc1cccc(-c2cccc(C(=O)O)c2)c1O [Example 1, 2′-Hydroxy-3′-[N′-(1-indan-5-yl-3-methyl-5-oxo-1,5-dihydro-pyrazol-4-ylidene)-hydrazino]-biphenyl-3-carboxylic acid]",,Vd/F [1]: 0.35 ± 0.18 L/kg; CL/F [1]: 0.817 mL/min/kg; AUC [1]: 132000 ± 47000 ng·h/mL; half-life [1]: 5.39 ± 0.94 h; MRT [1]: 4.96 ± 1.16 h; Cmax [1]: 29000 ± 11400 ng/mL
"CC1=NN(c2ccc3c(c2)CCCC3)C(=O)/C1=N\Nc1cccc(-c2cccc(C(=O)O)c2)c1O [Example 3, 2′-Hydroxy-3′-{N′-[3-methyl-5-oxo-1-(5,6,7,8-tetrahydro-naphthalen-2-yl)-1,5-dihydro-pyrazol-4-ylidene]-hydrazino}-biphenyl-3-carboxylic acid]",310 nM,
"CC1=NN(c2ccc3c(c2)CCCC3)C(=O)/C1=N\Nc1cc(F)cc(-c2cccc(C(=O)O)c2)c1O [Example 4, 5′-Fluoro-2′-hydroxy-3′-{N′-[3-methyl-5-oxo-1-(5,6,7,8-tetrahydro-naphthalen-2-yl)-1,5-dihydro-pyrazol-4-ylidene]-hydrazino}-biphenyl-3-carboxylic acid]",283 nM,
"CC1=NN(c2ccc3c(c2)CC3)C(=O)/C1=N\Nc1cccc(-c2cccc(C(=O)O)c2)c1O [Example 5, 3′-[N′-(1-Bicyclo[4.2.0]octa-1(6),2,4-trien-3-yl-3-methyl-5-oxo-1,5-dihydro-pyrazol-4-ylidene)-hydrazino]-2′-hydroxy-biphenyl-3-carboxylic acid]",354 nM,
"CC1=NN(c2ccc3c(c2)CCO3)C(=O)/C1=N\Nc1cccc(-c2cccc(C(=O)O)c2)c1O [Example 7, 3′-{N′-[1-(2,3-dihydro-benzofuran-5-yl)-3-methyl-5-oxo-1,5-dihydro-pyrazol-4-ylidene]-hydrazino}-2′-hydroxy-biphenyl-3-carboxylic acid]",265 nM,
"CC1=NN(c2ccc3c(c2)CCCC3)C(=O)/C1=N\Nc1cc(C)cc(-c2cccc(C(=O)O)c2)c1O [Example 11, 2′-Hydroxy-5′-methyl-3′-{N′-[3-methyl-5-oxo-1-(5,6,7,8-tetrahydro-naphthalen-2-yl)-1,5-dihydro-pyrazol-4-ylidene]-hydrazino}-biphenyl-3-carboxylic acid]",257 nM,
"CC1=NN(c2ccc3c(c2)CCO3)C(=O)/C1=N\Nc1cc(C)cc(-c2cccc(C(=O)O)c2)c1O [Example 13, 3′-{N′-[1-(2,3-Dihydro-benzofuran-5-yl)-3-methyl-5-oxo-1,5-dihydro-pyrazol-4-ylidene]-hydrazino}-2′-hydroxy-5′-methyl-biphenyl-3-carboxylic acid]",141 nM,
"CC1=NN(c2ccc3c(c2)CCCC3)C(=O)/C1=N\Nc1cccc(-c2ccc(C(=O)O)o2)c1O [Example 15, 5-(2-Hydroxy-3-{N′-[3-methyl-5-oxo-1-(5,6,7,8-tetrahydro-naphthalen-2-yl)-1,5-dihydro-pyrazol-4-ylidene]-hydrazino}-phenyl)-furan-2-carboxylic acid]",,Vd/F [1]: 1.36 ± 0.7 L/kg; CL/F [1]: 4.67 mL/min/kg; AUC [1]: 23800 ± 17300 ng·h/mL; half-life [1]: 3.47 ± 0.79 h; MRT [1]: 4.09 ± 0.99 h; Cmax [1]: 6630 ± 3780 ng/mL
"CC1=NN(c2ccc3c(c2)C(C)(C)CC3)C(=O)/C1=N\Nc1cc(C)cc(-c2cccc(C(=O)O)c2)c1O [Example 16, 3′-{N′-[1-(3,3-Dimethyl-indan-5-yl)-3-methyl-5-oxo-1,5-dihydro-pyrazol-4-ylidene]-hydrazino}-2′-hydroxy-5′-methyl-biphenyl-3-carboxylic acid]",160 nM,
"CC1=NN(c2ccc3c(c2)C(C)(C)CC3(C)C)C(=O)/C1=N\Nc1cc(C)cc(-c2cccc(C(=O)O)c2)c1O [Example 20, 2′-Hydroxy-5′-methyl-3′-{N′-[3-methyl-5-oxo-1-(1,1,3,3-tetramethyl-indan-5-yl)-1,5-dihydro-pyrazol-4-ylidene]-hydrazino}-biphenyl-3-carboxylic acid]",89 nM,
"CC1=NN(c2ccc3c(c2)CC3)C(=O)/C1=N\Nc1cccc(-c2ccc(C(=O)O)o2)c1O [Example 22, 5-{3-[N′-(1-Bicyclo[4.2.0]octa-1(6),2,4-trien-3-yl-3-methyl-5-oxo-1,5-dihydro-pyrazol-4-ylidene)-hydrazino]-2-hydroxy-phenyl}-furan-2-carboxylic acid]",15 nM,
"CC1=NN(c2ccc3c(c2)C(C)(C)CC3(C)C)C(=O)/C1=N\Nc1cccc(-c2ccc(C(=O)O)o2)c1O [Example 25, 5-(2-Hydroxy-3-{N′-[3-methyl-5-oxo-1-(1,1,3,3-tetramethyl-indan-5-yl)-1,5-dihydro-pyrazol-4-ylidene]-hydrazino}-phenyl)-furan-2-carboxylic acid]",60 nM,
"CC1=NN(c2ccc3c(c2)CCC3)C(=O)/C1=N\Nc1cccc(-c2coc(C(=O)O)c2)c1O [Example 31, 4-{2-Hydroxy-3-[N′-(1-indan-5-yl-3-methyl-5-oxo-1,5-dihydro-pyrazol-4-ylidene)-hydrazino]-phenyl}-furan-2-carboxylic acid]",27 nM,
"CC1=NN(c2ccc3c(c2)CC3)C(=O)/C1=N\Nc1cccc(-c2ccc(C(=O)O)s2)c1O [Example 37, 5-{3-[N′-(1-Bicyclo[4.2.0]octa-1(6),2,4-trien-3-yl-3-methyl-5-oxo-1,5-dihydro-pyrazol-4-ylidene)-hydrazino]-2-hydroxy-phenyl}-thiophene-2-carboxylic acid]",90 nM,
"CC1=NN(c2ccc3c(c2)C(C)CC3)C(=O)/C1=N\Nc1cccc(-c2ccc(C(=O)O)o2)c1O (stereo not shown) [Example 44, 5-(2-Hydroxy-3-{N′-[3-methyl-1-(3-methyl-indan-5-yl)-5-oxo-1,5-dihydro-pyrazol-4-ylidene]-hydrazino}-phenyl)-furan-2-carboxylic acid]",50 nM,
